The text below walks through data of article PMC5863483, “Low HLA binding of diabetes-associated CD8+ T-cell epitopes is increased by post translational modifications” (BMC Immunology, 2018).

*1 amine or outer side, *2 acyl side, *3 side chain or, on linkers, in order; H or OH if unused. Where a SMILES comes first, the peptide text is derived from it. Where no end group is shown, it is not given here. [ ]: non-standard residue; d: D form. γGlu = O=C(O)[C@H](CCC(=O)[*:2])N[*:1]; βAsp = O=C(O)[C@H](CC(=O)[*:2])N[*:1]; Cya = N[C@@H](CS(=O)(=O)O)C(=O)O; Cit = NC(=O)NCCC[C@H](N)C(=O)O

For the first test, the target named is HLA-A*02:01 (Homo sapiens, UniProt P04439, D140Y/D185E/D98H/E176V/E277Q/G131W/G231S/I119V/I121R/I166T/I218V/L300P/L318F/N151K/N90K/P208A/P217A/Q86G/Q94H/R138H/R169H/T345S). The experiment in a line: HLA-peptide competition binding assay, A*02:01.
Conditions: not given
Turning to `CC(C)C[C@H](NC(=O)[C@H](Cc1c[nH]cn1)NC(=O)[C@H](CO)NC(=O)CNC(=O)[C@H](CS(=O)(=O)O)NC(=O)[C@H](CC(C)C)NC(=O)[C@@H](N)Cc1c[nH]cn1)C(=O)N[C@H](C(=O)N[C@@H](CCC(=O)O)C(=O)N[C@@H](C)C(=O)O)C(C)C` [HLBGSHLVEA] (H-HL[Cya]GSHLVEA-OH), the IC50 worked out at 6210 nM.
Regarding LLSLFSLWL [reference compound], the IC50 stood at 152 nM.
On the same count and under the same terms, the result for HLCGSHLVEA [reference compound] reads 7540 nM.
The same measure, in the same setting: the result for LLSILCIWV [reference compound] reads 734 nM.

Still in this test, the particulars now being: post-translationally modified insulin peptide; competition binding assay; a dash indicates IC50 >40,000 nM; read-out: A*02:01 binding (IC50 nM) Modified.
Turning to DEHLCGSHL, the IC50 was above 40000 nM.
Still for that read-out and setting: the result for `CC(C)C[C@H](NC(=O)[C@H](C)NC(=O)[C@H](CCC(=O)O)NC(=O)[C@@H](NC(=O)[C@H](CC(C)C)NC(=O)[C@H](Cc1c[nH]cn1)NC(=O)[C@H](CO)NC(=O)CNC(=O)[C@H](CS(=O)(=O)O)NC(=O)[C@@H](N)CC(C)C)C(C)C)C(=O)O` [LBGSHLVEAL] (H-L[Cya]GSHLVEAL-OH; N-terminus and C-terminus assumed) reads above 40000 nM.
Still for that read-out and setting: next, `CC(C)C[C@H](NC(=O)[C@H](Cc1c[nH]cn1)NC(=O)[C@H](CCC(N)=O)NC(=O)[C@H](CC(N)=O)NC(=O)[C@@H](NC(=O)[C@@H](N)Cc1ccccc1)C(C)C)C(=O)N[C@@H](CS(=O)(=O)O)C(=O)NCC(=O)N[C@@H](CO)C(=O)N[C@@H](Cc1c[nH]cn1)C(=O)O` [FVNQHLBGSH] (H-FVNQHL[Cya]GSH-OH; N-terminus and C-terminus assumed): above 40000 nM.
The same measure, in the same setting: next, `C[C@@H](O)[C@H](NC(=O)[C@H](Cc1ccc(O)cc1)NC(=O)[C@H](Cc1ccc(O)cc1)NC(=O)[C@H](Cc1ccc(O)cc1)NC(=O)CNC(=O)[C@H](CCCNC(=N)N)NC(=O)[C@H](CCC(=O)O)NC(=O)CNC(=O)[C@@H](N)CS(=O)(=O)O)C(=O)O` [BGERGYYYT] (H-[Cya]GERGYYYT-OH; N-terminus and C-terminus assumed): above 40000 nM.
Turning to `CC(C)C[C@H](NC(=O)[C@H](Cc1c[nH]cn1)NC(=O)[C@H](CO)NC(=O)CNC(=O)[C@H](CS)NC(=O)[C@H](CC(C)C)NC(=O)[C@H](Cc1c[nH]cn1)NC(=O)CC[C@H](NC(=O)C[C@H](NC(=O)[C@@H](N)C(C)C)C(=O)O)C(=O)O)C(=O)O` [VOZHLCGSHL] (H-V[βAsp][γGlu]HLCGSHL-OH; N-terminus and C-terminus assumed), the IC50 is above 40000 nM.
The same measure, in the same setting: next, LYLVCGERGY: above 40000 nM; GERGYFYTPK: above 40000 nM; `CC(C)C[C@H](N)C(=O)N[C@H](C(=O)N[C@@H](CS(=O)(=O)O)C(=O)NCC(=O)N[C@@H](CCC(=O)O)C(=O)N[C@@H](CCCNC(=N)N)C(=O)NCC(=O)N[C@@H](Cc1ccc(O)cc1)C(=O)N[C@@H](Cc1ccc(O)cc1)C(=O)O)C(C)C` [LVBGERGYY] (H-LV[Cya]GERGYY-OH; N-terminus and C-terminus assumed): above 40000 nM.
Regarding `CC(C)C[C@H](N)C(=O)N[C@H](C(=O)N[C@@H](CS)C(=O)NCC(=O)N[C@@H](CCC(=O)O)C(=O)N[C@@H](CCCNC(N)=O)C(=O)NCC(=O)N[C@@H](Cc1ccccc1)C(=O)N[C@@H](Cc1ccccc1)C(=O)O)C(C)C` (H-LVCGE[Cit]GFF-OH; N-terminus and C-terminus assumed), the IC50 was above 40000 nM.
Consider EHLCGSHLVE, for which the IC50 is above 40000 nM.
Same read-out and setting: next, `CC[C@H](C)[C@H](NC(=O)CNC(=O)[C@H](CCCNC(N)=O)NC(=O)[C@H](CCCCN)NC(=O)[C@H](CCC(N)=O)NC(=O)[C@@H](N)CC(C)C)C(=O)N[C@H](C(=O)N[C@@H](CCC(=O)O)C(=O)N[C@@H](CCC(N)=O)C(=O)O)C(C)C` (H-LQK[Cit]GIVEQ-OH; N-terminus and C-terminus assumed): above 40000 nM; `C[C@H](NC(=O)[C@H](CCC(=O)O)NC(=O)[C@H](CCCNC(N)=O)NC(=O)[C@H](CCCNC(N)=O)NC(=O)[C@@H](NC(=O)[C@H](CCCCN)NC(=O)[C@@H]1CCCN1C(=O)[C@@H](NC(=O)[C@@H](N)Cc1ccc(O)cc1)[C@@H](C)O)[C@@H](C)O)C(=O)N[C@@H](CCC(=O)O)C(=O)O` (H-YTPKT[Cit][Cit]EAE-OH; N-terminus and C-terminus assumed): above 40000 nM; `CC(C)C[C@H](NC(=O)[C@H](C)N)C(=O)N[C@@H](CCC(=O)O)C(=O)NCC(=O)N[C@@H](CO)C(=O)N[C@@H](CC(C)C)C(=O)N[C@@H](CCC(N)=O)C(=O)N[C@@H](CCCCN)C(=O)N[C@@H](CCCNC(N)=O)C(=O)NCC(=O)O` (H-ALEGSLQK[Cit]G-OH; N-terminus and C-terminus assumed): above 40000 nM.

Still in this test, the particulars now being: post-translationally modified insulin-derived peptide; radiolabeled ligand competition, purified MHC, two-day incubation, three or more independent experiments; read-out: A*02:01 binding, Modified.
On to `CC(C)C[C@H](NC(=O)[C@H](C)NC(=O)[C@@H](N)CC(C)C)C(=O)N[C@@H](CCC(=O)O)C(=O)NCC(=O)N[C@@H](CO)C(=O)N[C@@H](CC(C)C)C(=O)N[C@@H](CCC(N)=O)C(=O)N[C@@H](CCCCN)C(=O)N[C@@H](CCCNC(N)=O)C(=O)O` (H-LALEGSLQK[Cit]-OH), for which the IC50 was found to be 16400 nM.
The same measure, in the same setting: the result for ERGYYYTPKT reads 5730 nM; that for `CSCC[C@H](NC(=O)[C@H](Cc1c[nH]c2ccccc12)NC(=O)[C@H](CC(C)C)NC(=O)[C@H](C)N)C(=O)N[C@@H](CCCNC(N)=O)C(=O)N[C@@H](CC(C)C)C(=O)N[C@@H](CC(C)C)C(=O)N1CCC[C@H]1C(=O)N[C@@H](CC(C)C)C(=O)N[C@@H](CC(C)C)C(=O)O` (H-ALWM[Cit]LLPLL-OH), 69 nM.

Staying with this test, now noted: read-out: A*02:01 binding (IC50 nM) Modified.
With `CC(C)C[C@H](NC(=O)[C@H](CC(=O)O)NC(=O)[C@H](CCC(=O)O)NC(=O)[C@H](C)NC(=O)[C@H](CCC(=O)O)NC(=O)[C@H](CCCNC(N)=O)NC(=O)[C@H](CCCNC(N)=O)NC(=O)[C@@H](N)[C@@H](C)O)C(=O)N[C@@H](CCC(N)=O)C(=O)N[C@H](C(=O)O)C(C)C` (H-T[Cit][Cit]EAEDLQV-OH), the IC50 came to 30200 nM.
On the same count and under the same terms, next, `C[C@@H](O)[C@H](NC(=O)[C@H](CCCCN)NC(=O)[C@@H]1CCCN1C(=O)[C@@H](NC(=O)[C@H](Cc1ccc(O)cc1)NC(=O)[C@H](Cc1ccccc1)NC(=O)[C@@H](N)Cc1ccccc1)[C@@H](C)O)C(=O)N[C@@H](CCCNC(N)=O)C(=O)N[C@@H](CCCNC(N)=O)C(=O)N[C@@H](CCC(=O)O)C(=O)O` (H-FFYTPKT[Cit][Cit]E-OH): 28300 nM.

The same test, now with this note: read-out: A*02:01 binding (IC50 nM) Modified; post-translationally modified insulin peptide; competition binding assay; a dash indicates IC50 >40,000 nM.
As to `C[C@@H](O)[C@H](NC(=O)[C@H](Cc1ccc(O)cc1)NC(=O)[C@H](Cc1ccc(O)cc1)NC(=O)[C@H](Cc1ccc(O)cc1)NC(=O)CNC(=O)[C@H](CCCNC(=N)N)NC(=O)[C@H](CCC(=O)O)NC(=O)CNC(=O)[C@@H](N)CS(=O)(=O)O)C(=O)N1CCC[C@H]1C(=O)O` [BGERGYYYTP] (H-[Cya]GERGYYYTP-OH; N-terminus and C-terminus assumed), the IC50 is above 40000 nM.

The same test, now with this note: read-out: A*02:01 binding (IC50 nM) WT.
As to MRLLPLLAL [MRLLPLLAL], the IC50 was 228 nM.

Staying with this test, now noted: read-out: IC50 nM, target assay A*02:01.
Regarding STVASRLGPV [reference compound], the IC50 is 25100 nM.
Same read-out and setting: the result for “RLLPLWAAL [RLLPLWAAL, reference compound]” reads 52 nM.
On to “SISVLISAL [SISVLISAL, reference compound]”, for which the IC50 was 1550 nM.
On to ALARGAGTVPL [reference compound], for which the IC50 is 29 nM.
On the same count and under the same terms, next, `CC(C)C[C@H](NC(=O)[C@@H](N)[C@@H](C)O)C(=O)N[C@@H](CO)C(=O)N[C@@H](CO)C(=O)N[C@@H](CCCNC(=N)N)C(=O)N[C@H](C(=O)N[C@@H](CS)C(=O)N[C@@H](CS)C(=O)N[C@@H](CCCNC(=N)N)C(=O)N[C@H](C(=O)O)[C@@H](C)O)C(C)C` [reference compound] (H-TLSSRVCCRT-OH): 2780 nM; SLFEGVDFYT [reference compound]: 51 nM; WGPDPAAA [reference compound]: above 40000 nM.
On the same count and under the same terms, next, ALTAVAEEV [reference compound]: 1310 nM; `CC[C@H](C)[C@H](NC(=O)[C@H](CO)NC(=O)[C@@H](NC(=O)[C@H](CS)NC(=O)[C@H](CS)NC(=O)[C@H](CCC(N)=O)NC(=O)[C@H](CCC(=O)O)NC(=O)[C@@H](NC(=O)[C@@H](NC(=O)CN)[C@@H](C)CC)C(C)C)[C@@H](C)O)C(=O)O` [reference compound] (H-GIVEQCCTSI-OH): 7450 nM; FMTSSWWRA [reference compound]: 101 nM.
As to “RLLPLLALLAL [RLLPLLALLAL, reference compound]”, the IC50 was 109 nM.
On the same count and under the same terms, next, LLDVAPLSL [reference compound]: 51 nM.
Still for that read-out and setting: next, VLNSVASLL [reference compound]: 1140 nM; HLASEKVYAI [reference compound]: 4060 nM.
On the same count and under the same terms, the result for GIPPAPRGV [reference compound] reads 1230 nM; that for FMTSSWWRAPL [reference compound], 84 nM.
Take NLLGRFELI [reference compound]: the IC50 stood at 764 nM.
On the same count and under the same terms, the result for MVWESGCTV [reference compound] reads 126 nM.

Staying with this test, now noted: unmodified (WT) insulin peptide; competition binding assay; a dash indicates IC50 >40,000 nM; read-out: A*02:01 binding (IC50 nM) WT.
As for TPKTRREAE, the IC50 was above 40000 nM.
The same measure, in the same setting: the result for REAEDLQVG reads above 40000 nM; that for TRREAEDLQ, above 40000 nM; that for NQHLCGSHL, above 40000 nM.
On to YTPKTRREA, for which the IC50 was above 40000 nM.
With TPKTRREAED [TPKTRREAED], the IC50 was above 40000 nM.
FYTPKTRREA: the IC50 is above 40000 nM.
Same read-out and setting: the result for FFYTPKTRRE reads above 40000 nM.
For EGSLQKRGIV, the IC50 is above 40000 nM.
Turning to GERGFFYTP, the IC50 was above 40000 nM.
In the case of ALEGSLQKR, the IC50 is above 40000 nM.
Still for that read-out and setting: the result for GSLQKRGIVE [GSLQKRGIVE] reads above 40000 nM.
